From the supplement of paper PMC11208160

Test: recombinant barcode read abundance after kanamycin selection (control-corrected) (log10(CPM+1)); higher = more efficient recombination; sequences stand for … in AGTGCAGAGAAAATCGGCCAGTTTTCTCTGCCTGCAGTCCGCATGCCGT…ATTTATGCAGCGGACTGCCTTTCTCCCAAAGTGATAAACCGGACAGTATCATGGACCGGTTTTCCCGGTAATCCGTATTTGCAAGGTTGGTTTCACT; site = the 11-nt target
Experimental: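 Same pooled E. coli target screen (IS621 bridge recombinase, kanamycin selection, control-corrected CPM, mean of 2 biological replicates). Here the two core-binding nucleotides of the LTG and RTG of the bridge RNA target-binding loop are mutated. Target and donor CT cores are held constant, and the other 9 guide positions match the target. The target is read from the library oligo sequence. Molecule = full bridge RNA written as DNA: nt 1-80 from the library oligo, rest WT scaffold.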
For “AAACACAACTGGGTTCTAACCTGTTGCCTAG [AAACACACTAG_LTGcore_AC_RTGcore_CT] (site AAACACACTAG) (LTG core: AC, RTG core: CT)”, the “recombinant barcode read abundance (log10)” value was 0.0236.
With “AAACACAAGTGGGTTCTAACCTGTTGCCTCT [AAACACACTAG_LTGcore_AG_RTGcore_AG] (site AAACACACTAG) (LTG core: AG, RTG core: AG)” the “recombinant barcode read abundance (log10)” value was 0.196.
In the case of “AAACACACATGGGTTCTAACCTGTTGCCTTG [AAACACACTAG_LTGcore_CA_RTGcore_CA] (site AAACACACTAG) (LTG core: CA, RTG core: CA)”, the “recombinant barcode read abundance (log10)” value is reported as 0.341.
With “AAACACACTTGGGTTCTAACCTGTTGCCTAC [AAACACACTAG_LTGcore_CT_RTGcore_GT] (site AAACACACTAG) (LTG core: CT, RTG core: GT)” the “recombinant barcode read abundance (log10)” value was 0.217.
With “AAACACACTTGGGTTCTAACCTGTTGCCTAG [AAACACACTAG_LTGcore_CT_RTGcore_CT] (site AAACACACTAG) (LTG core: CT, RTG core: CT)” the “recombinant barcode read abundance (log10)” value was 2.
With “AAACACACTTGGGTTCTAACCTGTTGCCTCA [AAACACACTAG_LTGcore_CT_RTGcore_TG] (site AAACACACTAG) (LTG core: CT, RTG core: TG)” the “recombinant barcode read abundance (log10)” value was 0.985.
In the case of “AAACACACTTGGGTTCTAACCTGTTGCCTTA [AAACACACTAG_LTGcore_CT_RTGcore_TA] (site AAACACACTAG) (LTG core: CT, RTG core: TA)”, the “recombinant barcode read abundance (log10)” value is reported as 0.852.
In the case of “AAACACATCTGGGTTCTAACCTGTTGCCTGA [AAACACACTAG_LTGcore_TC_RTGcore_TC] (site AAACACACTAG) (LTG core: TC, RTG core: TC)”, the “recombinant barcode read abundance (log10)” value is reported as 0.505.
With “AAACAGTAATGGGTTCTAACCTGTTGCCTAG [AAACAGTCTAG_LTGcore_AA_RTGcore_CT] (site AAACAGTCTAG) (LTG core: AA, RTG core: CT)” the “recombinant barcode read abundance (log10)” value was 0.01.
In the case of “AAACAGTACTGGGTTCTAACCTGTTGCCTAG [AAACAGTCTAG_LTGcore_AC_RTGcore_CT] (site AAACAGTCTAG) (LTG core: AC, RTG core: CT)”, the “recombinant barcode read abundance (log10)” value is reported as 0.0247.
For “AAACAGTCATGGGTTCTAACCTGTTGCCTAG [AAACAGTCTAG_LTGcore_CA_RTGcore_CT] (site AAACAGTCTAG) (LTG core: CA, RTG core: CT)”, the “recombinant barcode read abundance (log10)” value was 1.38.
With “AAACAGTCATGGGTTCTAACCTGTTGCCTTG [AAACAGTCTAG_LTGcore_CA_RTGcore_CA] (site AAACAGTCTAG) (LTG core: CA, RTG core: CA)” the “recombinant barcode read abundance (log10)” value was 0.25.
In the case of “AAACAGTCGTGGGTTCTAACCTGTTGCCTCG [AAACAGTCTAG_LTGcore_CG_RTGcore_CG] (site AAACAGTCTAG) (LTG core: CG, RTG core: CG)”, the “recombinant barcode read abundance (log10)” value is reported as 0.227.
In the case of “AAACAGTCTTGGGTTCTAACCTGTTGCCTAT [AAACAGTCTAG_LTGcore_CT_RTGcore_AT] (site AAACAGTCTAG) (LTG core: CT, RTG core: AT)”, the “recombinant barcode read abundance (log10)” value is reported as 1.32.
In the case of “AAACAGTCTTGGGTTCTAACCTGTTGCCTCC [AAACAGTCTAG_LTGcore_CT_RTGcore_GG] (site AAACAGTCTAG) (LTG core: CT, RTG core: GG)”, the “recombinant barcode read abundance (log10)” value is reported as 1.4.

Test: recombinant barcode read abundance after kanamycin selection (control-corrected) (log10(CPM+1)); higher = more efficient recombination; sequences stand for … in AGTGCAGAGAAAATCGGCCAGTTTTCTCTGCCTGCAGTCCGCATGCCGT…AGATTTATGCAGCGGACTGCCTTTCTCCCAAAGTGATAAACCGGACAGTATCATGGACCGGTTTTCCCGGTAATCCGTATTTGCAAGGTTGGTTTCACT; site = the 11-nt target
Outline: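 The screen was pooled in E. coli and paired targets with IS621 bridge RNA target-binding loops. Recombination efficiency is taken from barcode counts per million at recombinant junctions, averaged and adjusted against the control. Values, in the form log10(CPM+1), come from duplicate plating on chloramphenicol/ampicillin LB agar or on chloramphenicol/ampicillin/kanamycin with 0.1 mM IPTG.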
For “TTCTGTTCTTGGGTTCTAACCTGTTGCCT (site TTCTGTTCTAG)”, the “recombinant barcode read abundance (log10)” value was 0.196.
For “TTCTTAACTTGGGTTCTAACCTGTTGCGG (site ACTGATCCTAT)”, the “recombinant barcode read abundance (log10)” value was 0.0323.
For “TTCTTAACTTGGGTTCTAACCTGTTGCGG (site TTCTTAACTCC)”, the “recombinant barcode read abundance (log10)” value was 0.532.
In the case of “TTGAACCCTTGGGTTCTAACCTGTTGCGT (site ATGAACCCTAC)”, the “recombinant barcode read abundance (log10)” value is reported as 0.303.
For “TTGAACCCTTGGGTTCTAACCTGTTGCGT (site TTGAACCCTAC)”, the “recombinant barcode read abundance (log10)” value was 1.63.
With “TTGAAGCCTTGGGTTCTAACCTGTTGCCT (site ATGAAGCCTAG)” the “recombinant barcode read abundance (log10)” value was 0.41.
For “TTGAAGCCTTGGGTTCTAACCTGTTGCCT (site CTGAAGCCTAG)”, the “recombinant barcode read abundance (log10)” value was 0.0479.
For “TTGAAGCCTTGGGTTCTAACCTGTTGCCT (site GTGAAGCCTAG)”, the “recombinant barcode read abundance (log10)” value was 0.0341.
In the case of “TTGAAGCCTTGGGTTCTAACCTGTTGCCT (site TTGAAGCCTAG)”, the “recombinant barcode read abundance (log10)” value is reported as 1.38.
In the case of “TTGAATTCTTGGGTTCTAACCTGTTGCTT (site TTGAATTCTAA)”, the “recombinant barcode read abundance (log10)” value is reported as 0.0275.
For “TTGAATTCTTGGGTTCTAACCTGTTGCTT (site TTGTATTCTAG)”, the “recombinant barcode read abundance (log10)” value was 0.234.
With “TTGACACCTTGGGTTCTAACCTGTTGCCT (site GGAGTCACTCC)” the “recombinant barcode read abundance (log10)” value was 0.0713.
In the case of “TTGACACCTTGGGTTCTAACCTGTTGCCT (site TTGACACCTAG)”, the “recombinant barcode read abundance (log10)” value is reported as 1.1.
With “TTGACTGCTTGGGTTCTAACCTGTTGCCT (site TTGAATGCTAG)” the “recombinant barcode read abundance (log10)” value was 0.0744.
In the case of “TTGACTGCTTGGGTTCTAACCTGTTGCCT (site TTGACTGCTAG)”, the “recombinant barcode read abundance (log10)” value is reported as 0.812.
With “TTGACTGCTTGGGTTCTAACCTGTTGCCT (site TTGAGTGCTAG)” the “recombinant barcode read abundance (log10)” value was 0.0596.
In the case of “TTGACTGCTTGGGTTCTAACCTGTTGCCT (site TTGATTGCTAG)”, the “recombinant barcode read abundance (log10)” value is reported as 0.0272.
For “TTGATATCTTGGGTTCTAACCTGTTGCCT (site TTGAAATCTAG)”, the “recombinant barcode read abundance (log10)” value was 0.0834.
With “TTGATATCTTGGGTTCTAACCTGTTGCCT (site TTGACATCTAG)” the “recombinant barcode read abundance (log10)” value was 0.264.
For “TTGATATCTTGGGTTCTAACCTGTTGCCT (site TTGAGATCTAG)”, the “recombinant barcode read abundance (log10)” value was 0.0244.
For “TTGATATCTTGGGTTCTAACCTGTTGCCT (site TTGATATCTAG)”, the “recombinant barcode read abundance (log10)” value was 0.149.
In the case of “TTGATGACTTGGGTTCTAACCTGTTGCCT (site TTGATGACTAG)”, the “recombinant barcode read abundance (log10)” value is reported as 1.25.
With “TTGATGACTTGGGTTCTAACCTGTTGCCT (site TTGTAGACTAG)” the “recombinant barcode read abundance (log10)” value was 0.103.
With “TTGCATTCTTGGGTTCTAACCTGTTGCTG (site AAAGGGGCTAG)” the “recombinant barcode read abundance (log10)” value was 0.147.
With “TTGCATTCTTGGGTTCTAACCTGTTGCTG (site TTGCATTCTCA)” the “recombinant barcode read abundance (log10)” value was 0.962.
In the case of “TTGCGGCCTTGGGTTCTAACCTGTTGCAG (site CAAACTACTTG)”, the “recombinant barcode read abundance (log10)” value is reported as 0.0363.
For “TTGCGGCCTTGGGTTCTAACCTGTTGCAG (site TTGCGGCCTCT)”, the “recombinant barcode read abundance (log10)” value was 1.78.
For “TTGGACACTTGGGTTCTAACCTGTTGCCT (site TTGGACACTAG)”, the “recombinant barcode read abundance (log10)” value was 2.33.
With “TTGGACACTTGGGTTCTAACCTGTTGCCT (site TTGGCCACTAG)” the “recombinant barcode read abundance (log10)” value was 0.0571.
With “TTGGACACTTGGGTTCTAACCTGTTGCCT (site TTGGGCACTAG)” the “recombinant barcode read abundance (log10)” value was 0.327.
In the case of “TTGGACACTTGGGTTCTAACCTGTTGCCT (site TTGGTCACTAG)”, the “recombinant barcode read abundance (log10)” value is reported as 0.227.
With “TTGGACGCTTGGGTTCTAACCTGTTGCCT (site TTGGACGCTAG)” the “recombinant barcode read abundance (log10)” value was 2.37.
In the case of “TTGGACGCTTGGGTTCTAACCTGTTGCCT (site TTGGCCGCTAG)”, the “recombinant barcode read abundance (log10)” value is reported as 0.335.
With “TTGGACGCTTGGGTTCTAACCTGTTGCCT (site TTGGGCGCTAG)” the “recombinant barcode read abundance (log10)” value was 0.838.
For “TTGGACGCTTGGGTTCTAACCTGTTGCCT (site TTGGTCGCTAG)”, the “recombinant barcode read abundance (log10)” value was 0.133.
With “TTGGGTGCTTGGGTTCTAACCTGTTGCCG (site TTGGGTGCTCG)” the “recombinant barcode read abundance (log10)” value was 1.81.
In the case of “TTGGGTGCTTGGGTTCTAACCTGTTGCCG (site TTGGGTTCTAG)”, the “recombinant barcode read abundance (log10)” value is reported as 0.0649.
With “TTGGTTCCTTGGGTTCTAACCTGTTGCCT (site TTGGTACCTAG)” the “recombinant barcode read abundance (log10)” value was 0.155.
With “TTGGTTCCTTGGGTTCTAACCTGTTGCCT (site TTGGTCCCTAG)” the “recombinant barcode read abundance (log10)” value was 0.0439.
In the case of “TTGGTTCCTTGGGTTCTAACCTGTTGCCT (site TTGGTGCCTAG)”, the “recombinant barcode read abundance (log10)” value is reported as 0.43.
For “TTGGTTCCTTGGGTTCTAACCTGTTGCCT (site TTGGTTCCTAG)”, the “recombinant barcode read abundance (log10)” value was 2.07.
For “TTGTAAGCTTGGGTTCTAACCTGTTGCCG (site TTGTAAGCTCG)”, the “recombinant barcode read abundance (log10)” value was 0.653.
For “TTGTAAGCTTGGGTTCTAACCTGTTGCCG (site TTGTGAGCTCC)”, the “recombinant barcode read abundance (log10)” value was 0.441.
With “TTGTACACTTGGGTTCTAACCTGTTGCCC (site CACATGCCTCA)” the “recombinant barcode read abundance (log10)” value was 0.452.
With “TTGTACACTTGGGTTCTAACCTGTTGCCC (site TTGTACACTGG)” the “recombinant barcode read abundance (log10)” value was 0.996.
For “TTGTCTCCTTGGGTTCTAACCTGTTGCCT (site ATGTCTCCTAG)”, the “recombinant barcode read abundance (log10)” value was 0.0689.
With “TTGTCTCCTTGGGTTCTAACCTGTTGCCT (site CTGTCTCCTAG)” the “recombinant barcode read abundance (log10)” value was 0.0237.
With “TTGTCTCCTTGGGTTCTAACCTGTTGCCT (site GTGTCTCCTAG)” the “recombinant barcode read abundance (log10)” value was 0.109.
With “TTGTCTCCTTGGGTTCTAACCTGTTGCCT (site TTGTCTCCTAG)” the “recombinant barcode read abundance (log10)” value was 0.304.
In the case of “TTGTGTTCTTGGGTTCTAACCTGTTGCTT (site TTGTACTCTAA)”, the “recombinant barcode read abundance (log10)” value is reported as 0.00637.
In the case of “TTGTGTTCTTGGGTTCTAACCTGTTGCTT (site TTGTGTTCTAA)”, the “recombinant barcode read abundance (log10)” value is reported as 0.159.
